Assay type in all cases: biochemical
For one experiment, the target named is JAK1 (Homo sapiens (Human), UniProt P23458). Briefly: Purified kinase assay (Z'-LYTE), JAK1. As to conditions: Table 1; read-out: JAK1 IC50. As to the method:
(§1) JAK and TYK2 tyrosine phosphorylation activity is measured using the Z′-LYTE™ Technology developed by Invitrogen Corporation (Carlsbad, Calif.). For JAK1, JAK2 and JAK3 the Z′-LYTE™ Kinase Assay Kit-Tyr6 Peptide (part number PV4122) was used. For TYK2 the Z′-LYTE™ Kinase Assay Kit-Tyr6 Peptide (part number PV3192) was used. The Z′-LYTE™ biochemical assay employs a fluorescence resonance energy transfer (FRET) coupled-enzyme format and is based on the differential sensitivity of phosphorylated and non-phosphorylated peptides to proteolytic cleavage. The assay uses a synthetic peptide substrate that is labeled with a donor fluorophore (coumarin) and an acceptor fluorophore (fluorescein) that make up a FRET pair. In the primary reaction (the Kinase Reaction), the kinase transfers the γ-phosphate of ATP to a single tyrosine residue on the substrate, while the presence of a kinase inhibitor in the primary reaction suppresses phosphorylation. In the secondary reaction (the Development Reaction), a site-specific protease (the Development Reagent) is added. The development buffer quenches the Kinase Reaction, while the protease recognizes and cleaves non-phosphorylated Z′-LYTE™ peptide substrate. Cleavage disrupts FRET between the donor and acceptor fluorophores on the non-phosphorylated substrate, while uncleaved, phosphorylated substrate maintains FRET.
(§2) To test the ability of candidate molecules to inhibit JAK tyrosine phosphorylation activity, molecules are reconstituted in 100% DMSO and serially diluted 1:10 in polypropylene v-bottom microtiter plates. The candidate molecules are then diluted 1:25 into kinase buffer and 2.5 μl transferred into duplicate wells of a 384 well low volume black microtiter assay plate (Corning, USA). The final DMSO concentration in the assay is 1%. The kinase reaction contains 2.5 μl of a candidate molecule, 5 μl of catalytic domain recombinant Kinase enzyme+Tyr peptide substrate (Invitrogen, CA) and ATP (Invitrogen, CA). The kinase reaction is allowed to proceed for 1 hour at room temperature. The protease reaction is initiated by the addition of Development Reagent (Invitrogen, CA). After 1 hour incubation at room temperature the fluorescence is measured using a FlexStation plate reader (Molecular Devices, Sunnyvale, Calif.). The reader settings used are as follows: Fluorescence mode, endpoint, top read, excitation 400 nm, emission 445 nm and 520 nm, Auto Cutoff 435 nm and 515 nm, PMT sensitivity high, 6 reads per well Inhibition of JAK activity is calculated as the percent phosphorylation of substrate in the presence of inhibitor compared to the percent phosphorylation of substrate in the absence of inhibitor. IC50's were derived using Xlfit 4.3 (IDBS, UK), 4 parameter logistic model 205: Y=(A+((B−A)/(1+((C/x)^D)))).

The target in another experiment is JAK3 (Homo sapiens (Human), UniProt P52333). Briefly: Purified kinase assay (Z'-LYTE), JAK3. The note with it: Table 1; read-out: JAK3 IC50. As to the method: as §1, §2
JAK3, sequence (P52333 822-1111): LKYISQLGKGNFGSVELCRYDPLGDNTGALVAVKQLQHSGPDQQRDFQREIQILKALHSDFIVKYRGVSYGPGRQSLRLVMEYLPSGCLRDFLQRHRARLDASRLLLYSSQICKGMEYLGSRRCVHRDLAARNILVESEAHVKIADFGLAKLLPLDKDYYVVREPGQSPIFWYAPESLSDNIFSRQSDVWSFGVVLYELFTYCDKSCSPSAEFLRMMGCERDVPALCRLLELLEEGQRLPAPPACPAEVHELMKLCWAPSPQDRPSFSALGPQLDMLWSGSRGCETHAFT
For the next experiment, the target named is JAK2 (Homo sapiens (Human), UniProt O60674). Briefly: Purified kinase assay (Z'-LYTE), JAK2. The note with it: Table 1; read-out: JAK2 IC50. As for the experimental part: as §1, §2
JAK2, sequence (O60674 849-1124): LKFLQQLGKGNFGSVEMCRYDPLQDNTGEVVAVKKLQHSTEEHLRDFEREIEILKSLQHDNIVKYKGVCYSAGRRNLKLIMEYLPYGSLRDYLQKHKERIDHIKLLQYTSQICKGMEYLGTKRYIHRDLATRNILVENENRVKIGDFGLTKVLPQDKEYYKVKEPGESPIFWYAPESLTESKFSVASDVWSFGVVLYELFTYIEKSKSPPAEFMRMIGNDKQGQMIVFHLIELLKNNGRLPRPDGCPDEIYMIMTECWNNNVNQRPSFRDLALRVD

JAK1, sequence (P23458 875-1153): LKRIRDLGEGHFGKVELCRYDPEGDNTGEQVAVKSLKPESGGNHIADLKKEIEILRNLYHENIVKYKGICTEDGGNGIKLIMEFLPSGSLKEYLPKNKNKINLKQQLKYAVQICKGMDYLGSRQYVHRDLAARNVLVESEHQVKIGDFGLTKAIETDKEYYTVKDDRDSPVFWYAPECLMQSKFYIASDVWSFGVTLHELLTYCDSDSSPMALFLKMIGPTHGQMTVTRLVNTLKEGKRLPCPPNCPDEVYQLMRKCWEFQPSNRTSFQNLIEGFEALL

With `CC(=O)N1CCC(Cn2cc(Nc3cc(NCc4cccc(F)c4F)c(C(N)=O)nn3)cn2)CC1` [Compound 126], the IC50 (in general, the midpoint of a concentration-inhibition curve) is above 1000 nM on JAK1, 1 to 10 nM on JAK3 and 100 to 1000 nM at JAK2.
In the same order, the values of `CCC(=O)N1CCC(Cn2cc(Nc3cc(NCc4cccc(F)c4F)c(C(N)=O)nn3)cn2)CC1` [Compound 129] are 100 to 1000 nM, 1 to 10 nM and 100 to 1000 nM.
In the same order, the values of `CC(=O)N1CCN(c2ccc(Nc3cc(NCc4cccc(Cl)c4)c(C(N)=O)nn3)cc2)CC1` [Compound 46] are 100 to 1000 nM, 10 to 100 nM and 100 to 1000 nM.
In the same order, the values of `CCC(=O)N1CCN(c2ccc(Nc3cc(NCc4cccc5[nH]ccc45)c(C(N)=O)nn3)cc2)CC1` [Compound 110] are 10 to 100 nM, 1 to 10 nM and 10 to 100 nM.
Turning to `NC(=O)c1nnc(Nc2ncc(C(=O)N3CCOCC3)s2)cc1NCc1cccc(F)c1` [Compound 77], the half-inhibitory concentration (IC50) at JAK1 was above 1000 nM; at JAK3 it was 10 to 100 nM; at JAK2 it was above 1000 nM.
`CCC(=O)N1CCN(c2ccc(Nc3cc(NCc4cc(F)ccc4F)c(C(N)=O)nn3)cc2)CC1` [Compound 32]: the IC50 on JAK1 is above 1000 nM; at JAK3, 1 to 10 nM; at JAK2 it was 10 to 100 nM.
As to `CCC(=O)N1CCN(c2ccc(Nc3cc(NCc4cccc(F)c4F)c(C(N)=O)nn3)cc2)CC1` [Compound 34], the IC50 is above 1000 nM on JAK1, 1 to 10 nM at JAK3 and 10 to 100 nM on JAK2.
Taken in the same sequence, the figures for `NC(=O)c1nnc(Nc2ccc(N3CCNCC3)cc2)cc1NC1CCCC1` [Compound 13] were above 1000 nM, 100 to 1000 nM and 100 to 1000 nM.
In the case of `CN(C)C(=O)N1CCC(Cn2cc(Nc3cc(NCc4cccc(F)c4F)c(C(N)=O)nn3)cn2)CC1` [Compound 133], the figures for the IC50 at JAK1, on JAK3 and on JAK2 were above 1000 nM, 1 to 10 nM and 100 to 1000 nM, respectively.
For the compound `CC(=O)N1CCN(c2ccc(Nc3cc(NC4CCCC4)c(C(N)=O)nn3)cc2)CC1` [Compound 10], the IC50 on JAK1, at JAK3 and at JAK2 was 100 to 1000 nM in each case.
For the compound `CN(C)C(=O)Cn1cc(Nc2cc(NCc3cccc4ccsc34)c(C(N)=O)nn2)cn1` [Compound 131], the half-inhibitory concentration (IC50) on JAK1 was 100 to 1000 nM; on JAK3, 10 to 100 nM; on JAK2, 100 to 1000 nM.
For the compound `NC(=O)c1nnc(Nc2cnn(CC3CC3)c2)cc1NCc1cccc2ccsc12` [Compound 117], the IC50 on JAK1 is 100 to 1000 nM; at JAK3 it was 10 to 100 nM; on JAK2, 10 to 100 nM.
As for `NC(=O)c1nnc(Nc2cnn(CC3CCOCC3)c2)cc1NCc1cccc(F)c1F` [Compound 124], the IC50 was above 1000 nM on JAK1, 1 to 10 nM at JAK3 and 100 to 1000 nM at JAK2.
Consider `CC(=O)N1CCN(c2ccc(Nc3cc(NC4CCCCC4)c(C(N)=O)nn3)cc2)CC1` [Compound 8, 6-((4-(4-acetylpiperazin-1-yl)phenyl)amino)-4-(cyclohexylamino)pyridazine-3-carboxamide], for which the IC50 fell in the range of 100 to 1000 nM on JAK1, 10 to 100 nM at JAK3 and 100 to 1000 nM on JAK2.
For the compound `CC(=O)Nc1cccc(Nc2cc(NC3CCC3)c(C(N)=O)nn2)c1` [Compound 7, 6-((3-acetamidophenyl)amino)-4-(cyclobutylamino)pyridazine-3-carboxamide], the half-maximal inhibitory concentration (IC50) was above 1000 nM on JAK1, 100 to 1000 nM at JAK3 and 100 to 1000 nM on JAK2.
In the case of `CC(=O)N1CCN(c2ccc(Nc3cc(NCC4CCNCC4)c(C(N)=O)nn3)cc2)CC1` [Compound 63], the IC50 at JAK1 was above 1000 nM; at JAK3, 100 to 1000 nM; at JAK2 it was above 1000 nM.
Turning to `CC(=O)N1CCN(c2ccc(Nc3cc(NCc4cc(-c5cccnc5)ccc4F)c(C(N)=O)nn3)cc2)CC1` [Compound 104], the IC50 on JAK1 was above 1000 nM; at JAK3 it was 10 to 100 nM; at JAK2, 100 to 1000 nM.
In the same order, the values of `NC(=O)c1nnc(Nc2ccc(C(=O)N3CCCC3)c(Cl)c2)cc1NCc1cccc(F)c1` [Compound 55] are above 1000 nM, 10 to 100 nM and 100 to 1000 nM.
Turning to `NC(=O)c1nnc(Nc2cnn(CC3CCOCC3)c2)cc1NCc1cccc2ccsc12` [Compound 121], the results for the 50% inhibitory concentration (IC50) on JAK1, at JAK3 and on JAK2 were 100 to 1000 nM, 1 to 10 nM and 10 to 100 nM, respectively.
Regarding `COC(=O)N(C)c1ccc(Nc2cc(NCc3cccc(F)c3F)c(C(N)=O)nn2)cc1` [Compound 45], the IC50 at JAK1 was above 1000 nM; at JAK3, 10 to 100 nM; at JAK2 it was above 1000 nM.
In the case of `Cc1cc(Nc2cc(NCc3cccc(F)c3F)c(C(N)=O)nn2)ccc1N1CCOCC1` [Compound 40], the results for the 50% inhibitory concentration (IC50) on JAK1, on JAK3 and at JAK2 were above 1000 nM, 10 to 100 nM and above 1000 nM, respectively.
Take `CC(=O)N1CCN(c2ccc(Nc3cc(NCc4cccc(-n5ccnc5)c4)c(C(N)=O)nn3)cc2)CC1` [Compound 68]: the half-inhibitory concentration (IC50) was above 1000 nM at JAK1, 10 to 100 nM at JAK3 and above 1000 nM at JAK2.
Regarding `CCC(=O)N1CCC(Cn2cc(Nc3cc(NCc4cccc5ccsc45)c(C(N)=O)nn3)cn2)CC1` [Compound 128], the IC50 at JAK1 lay in the range of 100 to 1000 nM; at JAK3, 1 to 10 nM; at JAK2, 10 to 100 nM.
In the same order, the values of `CS(=O)(=O)Cc1ccc(Nc2cc(NCc3c(F)cccc3F)c(C(N)=O)nn2)cc1` [Compound 87] are 100 to 1000 nM, 1 to 10 nM and 100 to 1000 nM.
In the same order, the values of `CC(c1ccc(Nc2cc(NCc3cccc(F)c3)c(C(N)=O)nn2)cc1)S(C)(=O)=O` (stereo not drawn) [Compound 96] are 100 to 1000 nM, 10 to 100 nM and 100 to 1000 nM.
In the same order, the values of `NC(=O)c1nnc(Nc2ccc(N3CCOCC3)cn2)cc1NCc1cccc(F)c1` [Compound 64] are above 1000 nM, 1 to 10 nM and 10 to 100 nM.
For the compound `CC(=O)N1CCN(c2ccc(Nc3cc(NCc4cccc(-c5ccncc5)c4)c(C(N)=O)nn3)cc2)CC1` [Compound 69], the IC50 on JAK1 was above 1000 nM; on JAK3 it was 10 to 100 nM; at JAK2, above 1000 nM.
Consider `CC(C)(c1ccc(Nc2cc(NCc3cccc(F)c3)c(C(N)=O)nn2)cc1)S(C)(=O)=O` [Compound 95], for which the IC50 on JAK1 is above 1000 nM; on JAK3 it was 10 to 100 nM; at JAK2 it was 100 to 1000 nM.
In the same order, the values of `CC(=O)N(C)c1ccc(Nc2cc(NCc3cccc(F)c3)c(C(N)=O)nn2)cc1` [Compound 101] are above 1000 nM, 100 to 1000 nM and 100 to 1000 nM.
As to `NC(=O)c1nnc(Nc2ccc(N3CCNCC3)cc2)cc1NCc1cccs1` [Compound 22], the IC50 was above 1000 nM on JAK1, 10 to 100 nM on JAK3 and above 1000 nM on JAK2.
On to `CC(=O)N1CCN(c2ccc(Nc3cc(NCc4cc(-n5ccnc5)ccc4F)c(C(N)=O)nn3)cc2)CC1` [Compound 103], for which the half-maximal inhibitory concentration (IC50) at JAK1 was above 1000 nM; on JAK3, 10 to 100 nM; on JAK2, 100 to 1000 nM.
With `CC(=O)N1CCN(c2ccc(Nc3cc(NCC4CCC4)c(C(N)=O)nn3)cc2)CC1` [Compound 16], the IC50 on JAK1 was above 1000 nM; at JAK3, 10 to 100 nM; at JAK2, 100 to 1000 nM.
Turning to `NC(=O)c1nnc(Nc2ccc(N3CCOCC3)cc2)cc1NCc1c(F)cccc1F` [Compound 39], the 50% inhibitory concentration (IC50) at JAK1 was 100 to 1000 nM; on JAK3 it was 1 to 10 nM; at JAK2, 10 to 100 nM.
In the same order, the values of `CCC(=O)N1CCC(c2ccc(Nc3cc(NCc4cc(F)cc(F)c4)c(C(N)=O)nn3)cc2)CC1` [Compound 27] are above 1000 nM, 10 to 100 nM and above 1000 nM.
Turning to `NC(=O)c1nnc(Nc2cccc(CN3CCOCC3)c2)cc1NCc1cccc(F)c1` [Compound 48], the half-inhibitory concentration (IC50) on JAK1 is above 1000 nM; on JAK3, 10 to 100 nM; on JAK2, 100 to 1000 nM.
Taken in the same sequence, the figures for `NC(=O)c1nnc(Nc2ccc(C(=O)N3CCCC3)cc2)cc1NCc1cccc(F)c1F` [Compound 83] were above 1000 nM, 1 to 10 nM and 100 to 1000 nM.
